The source of these data is publication PMC9502272, “A Metabolomics Approach for Predicting OATP1B-Type Transporter-Mediated Drug–Drug Interaction Liabilities” (Pharmaceutics, 2022).

For data set [1], the target named is T1, Oatp1b2 (Mus musculus, UniProt Q9JJL3).
T1 sequence (Q9JJL3 1-689): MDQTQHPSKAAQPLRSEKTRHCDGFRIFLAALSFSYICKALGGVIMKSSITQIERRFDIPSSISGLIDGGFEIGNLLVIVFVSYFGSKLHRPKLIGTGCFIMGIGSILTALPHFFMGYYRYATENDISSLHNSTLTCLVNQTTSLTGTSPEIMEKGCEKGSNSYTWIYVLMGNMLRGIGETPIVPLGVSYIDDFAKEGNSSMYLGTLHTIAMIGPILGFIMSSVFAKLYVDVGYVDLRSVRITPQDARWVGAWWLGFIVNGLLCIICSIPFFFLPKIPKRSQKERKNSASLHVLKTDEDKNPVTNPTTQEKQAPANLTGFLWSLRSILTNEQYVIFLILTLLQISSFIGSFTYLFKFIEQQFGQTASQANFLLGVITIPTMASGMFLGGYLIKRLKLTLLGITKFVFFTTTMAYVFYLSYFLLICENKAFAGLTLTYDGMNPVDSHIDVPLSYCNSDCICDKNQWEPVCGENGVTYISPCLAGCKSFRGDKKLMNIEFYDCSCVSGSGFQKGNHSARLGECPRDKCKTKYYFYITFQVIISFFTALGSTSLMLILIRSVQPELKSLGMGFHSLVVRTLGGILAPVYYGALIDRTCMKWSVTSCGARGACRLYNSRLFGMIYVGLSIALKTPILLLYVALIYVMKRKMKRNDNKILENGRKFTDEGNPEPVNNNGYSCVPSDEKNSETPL
The settings on record: in vivo.
Procedure: (§1) For all experiments, age- and sex-matched mice (8–12 weeks old) were used. […] Mice with a deficiency of Oatp1b2 (Oatp1b2(−/−) mice), the single murine orthologue of OATP1B1 and OATP1B3 in humans, on a DBA/1LacJ background were kindly provided by Drs. Richard B. Kim (Western University, London, Ontario, Canada) and Jeffrey L. Stock (Pfizer, Groton, CT, USA).
(§2) Plasma samples from untreated wild-type mice and Oatp1b2(−/−) mice were analyzed for structurally named and unknown molecules using a non-targeted semi-quantitative liquid chromatography-tandem mass spectrometry (LC-MS/MS) and gas chromatography-mass spectrometry platforms (Metabolon, Durham, NC, USA). Compounds were identified by comparison with library entries of purified standards or recurrent unknown entities.

Data set [2] addresses T1, Oatp1b2. In words: Untargeted metabolomics of plasma from untreated wild-type and Oatp1b2(−/−) mice. Particulars: for Fold of Change KO/WT: plasma of untreated Oatp1b2-deficient (KO) vs wild-type (WT) mice, semi-quantitative, positive = higher in KO, n = 6 per group; for Mean value KO: plasma of untreated Oatp1b2-deficient mice; for Mean value KO / Mean value WT: raw area counts rescaled to median = 1; for Mean value WT: plasma of untreated wild-type mice.
Procedure: as §1, §2

Like-named read-outs stand apart in the source and are kept apart here.

Take `C[N+](C)(C)[C@@H](Cc1cnc[nH]1)C(=O)[O-]` [histidine betaine (hercynine)]: at Oatp1b2 [1], the “Fold of Change KO/WT” value worked out at 1.31, the “Mean value KO” value is 1.09 and the “Mean value WT” value is reported as “.830”.

Regarding `C[C@H](CCC(=O)NCCS(=O)(=O)O)[C@H]1CC[C@H]2[C@@H]3CC[C@@H]4C[C@H](O)CC[C@]4(C)[C@H]3C[C@H](O)[C@]12C` [taurodeoxycholate], on Oatp1b2 [2], the “Fold of Change KO/WT” value is listed as 3.45, the “Mean value KO” value is 1.82 and the “Mean value WT” value is “.528”.

Regarding `C[C@H](CCC(=O)NCCS(=O)(=O)O)[C@H]1CC[C@H]2[C@@H]3CC[C@@H]4C[C@H](OS(=O)(=O)O)CC[C@]4(C)[C@H]3C[C@H](O)[C@]12C` [taurodeoxycholic acid 3-sulfate], on Oatp1b2 [2], the “Fold of Change KO/WT” value stood at 1.58, the “Mean value KO” value stood at 1.10 and the “Mean value WT” value was “.694”.

As to `C[C@H](CCC(=O)NCCS(=O)(=O)O)[C@H]1CC[C@H]2[C@@H]3CC[C@@H]4C[C@H](OS(=O)(=O)O)CC[C@]4(C)[C@H]3CC[C@]12C` [taurolithocholate 3-sulfate], on Oatp1b2 [2], the “Fold of Change KO/WT” value stood at 2.25, the “Mean value KO” value was found to be 0.960 and the “Mean value WT” value was “.425”.

Turning to `O=C(O)CCCCCCCCCCCCC(=O)O` [tetradecanedioate (C14-DC)], on Oatp1b2 [2], the “Fold of Change KO/WT” value worked out at 4.27, the “Mean value KO” value came to 1.96 and the “Mean value WT” value was “.459”.

With `C/C=C(\C)C(=O)NCC(=O)O` [tigloylglycine], at Oatp1b2 [2], the “Fold of Change KO/WT” value was determined as 1.38, the “Mean value KO” value was found to be 1.22 and the “Mean value WT” value is “.883”.

For the compound `O=C(O)CCCCCCCCCC(=O)O` [undecanedioate (C11-DC)], on Oatp1b2 [2], the “Fold of Change KO/WT” value worked out at 3.00, the “Mean value KO” value is listed as 1.96 and the “Mean value WT” value is reported as “.654”.

Consider `C[C@H](CCC(=O)O)[C@H]1CC[C@H]2[C@@H]3[C@@H](O)C[C@@H]4C[C@H](O)CC[C@]4(C)[C@H]3C[C@H](O)[C@]12C` [ursocholate], for which, on Oatp1b2 [2], the “Fold of Change KO/WT” value turned out to be 33.8, the “Mean value KO” value was 5.10 and the “Mean value WT” value is recorded as “.151”.

In the case of `C[C@H](CCC(=O)O)[C@H]1CC[C@H]2[C@@H]3[C@@H](O)C[C@@H]4C[C@H](O)CC[C@]4(C)[C@H]3CC[C@]12C` [ursodeoxycholate], at Oatp1b2 [2], the “Fold of Change KO/WT” value was 4.07, the “Mean value KO” value is listed as 2.16 and the “Mean value WT” value is “.530”.

As for `CCCCC(=O)NCC(=O)O` [valerylglycine], on Oatp1b2 [2], the “Fold of Change KO/WT” value is on record as 1.53, the “Mean value KO” value was determined as 1.28 and the “Mean value WT” value is recorded as “.838”.

In the case of `Cc1c(C)c2c(c(C)c1O)CC[C@@](C)(CCC[C@H](C)CCC[C@H](C)CCCC(C)C)O2` [α-tocopherol], on Oatp1b2 [2], the “Fold of Change KO/WT” value is reported as 2.03, the “Mean value KO” value was 1.44 and the “Mean value WT” value is given as “.707”.

As to (N(1) + N(8))-acetylspermidine, the “Mean value WT” value on Oatp1b2 [2] is “.931”.

For the compound chenodeoxycholic acid sulfate (1), at Oatp1b2 [2], the “Fold of Change KO/WT” value is 6.41, the “Mean value KO” value is 1.02 and the “Mean value WT” value was “.160”.

With “dihomo-linolenoylcarnitine (C20:3n3 or 6)”, on Oatp1b2 [2], the “Fold of Change KO/WT” value amounted to 1.72, the “Mean value KO” value is 1.37 and the “Mean value WT” value was “.795”.

For dodecenedioate (C12:1-DC), at Oatp1b2 [2], the “Fold of Change KO/WT” value is recorded as 3.94, the “Mean value KO” value is recorded as 2.14 and the “Mean value WT” value is “.543”.

eicosadienamide (20:2): at Oatp1b2 [2], the “Fold of Change KO/WT” value stood at 1.46, the “Mean value KO” value is on record as 1.27 and the “Mean value WT” value is recorded as “.869”.

Regarding eicosenamide (20:1), on Oatp1b2 [2], the “Fold of Change KO/WT” value is 1.43, the “Mean value KO” value turned out to be 1.27 and the “Mean value WT” value is reported as “.885”.

As for eicosenedioate (C20:1-DC), on Oatp1b2 [2], the “Fold of Change KO/WT” value came out at 5.36, the “Mean value KO” value worked out at 1.80 and the “Mean value WT” value is “.335”.

With enterolactone sulfate, on Oatp1b2 [2], the “Fold of Change KO/WT” value is given as 3.42, the “Mean value KO” value came to 1.63 and the “Mean value WT” value is reported as “.478”.

Turning to equol glucuronide, at Oatp1b2 [2], the “Fold of Change KO/WT” value came out at 1.90, the “Mean value KO” value is listed as 1.35 and the “Mean value WT” value is on record as “.709”.

For the compound equol sulfate, at Oatp1b2 [2], the “Fold of Change KO/WT” value stood at 2.58, the “Mean value KO” value was 1.62 and the “Mean value WT” value is “.626”.

Regarding heptadecenamide (17:1), at Oatp1b2 [2], the “Fold of Change KO/WT” value is 1.37, the “Mean value KO” value was determined as 1.29 and the “Mean value WT” value was “.939”.

As for hexadecenedioate (C16:1-DC), at Oatp1b2 [2], the “Fold of Change KO/WT” value is listed as 3.61, the “Mean value KO” value is listed as 1.62 and the “Mean value WT” value was “.448”.

Regarding linolenoylcarnitine (C18:3), at Oatp1b2 [2], the “Fold of Change KO/WT” value stood at 1.91, the “Mean value KO” value was determined as 1.51 and the “Mean value WT” value is listed as “.794”.

As for nonadecenamide (19:1), at Oatp1b2 [2], the “Fold of Change KO/WT” value is on record as 1.39, the “Mean value KO” value worked out at 1.27 and the “Mean value WT” value is “.917”.

For octadecadienedioate (C18:2-DC), at Oatp1b2 [2], the “Fold of Change KO/WT” value is recorded as 3.48, the “Mean value KO” value turned out to be 1.88 and the “Mean value WT” value is “.540”.

As for octadecenedioate (C18:1-DC), on Oatp1b2 [2], the “Fold of Change KO/WT” value amounted to 2.66, the “Mean value KO” value was found to be 1.45 and the “Mean value WT” value is reported as “.544”.

For the compound octadecenedioylcarnitine (C18:1-DC), at Oatp1b2 [2], the “Fold of Change KO/WT” value was found to be 12.7, the “Mean value KO” value stood at 2.35 and the “Mean value WT” value is given as “.185”.

For the compound pregnenediol disulfate (C21H34O8S2), at Oatp1b2 [2], the “Fold of Change KO/WT” value is 2.14, the “Mean value KO” value is 1.16 and the “Mean value WT” value is “.540”.

Consider sphingomyelin (d17:1/14:0, d16:1/15:0), for which, on Oatp1b2 [2], the “Fold of Change KO/WT” value is on record as 1.32, the “Mean value KO” value is reported as 1.02 and the “Mean value WT” value is reported as “.769”.

As for sphingomyelin (d18:1/14:0, d16:1/16:0), at Oatp1b2 [2], the “Mean value WT” value is “.930”.

On to sphingomyelin (d18:2/14:0, d18:1/14:1), for which, on Oatp1b2 [2], the “Fold of Change KO/WT” value was 1.36, the “Mean value KO” value stood at 1.14 and the “Mean value WT” value is given as “.839”.

With sphingomyelin (d18:2/16:0, d18:1/16:1), the “Mean value WT” value on Oatp1b2 [2] is reported as “.940”.

Turning to taurocholenate sulfate, on Oatp1b2 [2], the “Mean value KO” value is given as 1.08 and the “Mean value WT” value was “.838”.

tauroursodeoxycholic acid sulfate (2): on Oatp1b2 [2], the “Fold of Change KO/WT” value was 2.18, the “Mean value KO” value amounted to 1.12 and the “Mean value WT” value is recorded as “.513”.

Turning to tetradecadienedioate (C14:2-DC), on Oatp1b2 [2], the “Fold of Change KO/WT” value was 2.09, the “Mean value KO” value is listed as 1.58 and the “Mean value WT” value is “.756”.
